Legend:
Type in all cases: cell-based
human A2A receptor = target: T1, human A2A receptor (Homo sapiens, UniProt P29274); experiment: cAMP (HTRF) functional assay, recombinant HEK293 cells expressing human A2A receptor, agonist NECA
T1 construct: expressed in transfected cells; host or cells: HEK293
Protocol: (§1) The functional activities of human A2A, A2B, A1 and A3 receptors were determined by quantification of cAMP, being the second messenger for adenosine receptors.
(§2) Cells were seeded into 384-well plates, forskolin, test compounds and agonists (CPA for A1- and IB-MECA for A3-receptor) were added. After 30 min incubation, HTRF reagents (cAMP dynamic 2, Cis Bio) were added and the cellular cAMP levels were determined using the ENVISION (Perkin Elmer) plate reader. Obtained raw data were normalized against the inhibitor control and the neural control (DMSO) and the normalized data were fitted using GeneData software.

human A2B receptor = target: T2, human A2B receptor (Homo sapiens, UniProt P29275); experiment: cAMP (HTRF) functional assay, recombinant HEK293 cells expressing human A2B receptor, agonist NECA
T2 construct: expressed in transfected cells; host or cells: HEK293
T2 sequence (P29275 1-332): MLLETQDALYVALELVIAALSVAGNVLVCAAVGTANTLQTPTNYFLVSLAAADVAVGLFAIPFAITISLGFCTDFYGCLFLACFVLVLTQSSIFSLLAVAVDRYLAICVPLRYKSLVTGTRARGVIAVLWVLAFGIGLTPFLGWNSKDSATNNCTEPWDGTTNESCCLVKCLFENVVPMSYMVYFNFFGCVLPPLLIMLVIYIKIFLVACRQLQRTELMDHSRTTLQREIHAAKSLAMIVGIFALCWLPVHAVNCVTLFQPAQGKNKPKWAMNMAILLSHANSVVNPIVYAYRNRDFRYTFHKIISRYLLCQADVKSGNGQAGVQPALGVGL
Protocol: as §1, §2

human A1 receptor = target: T3, human A1 receptor (Homo sapiens, UniProt P30542); experiment: cAMP (HTRF) functional assay, recombinant CHO cells expressing human A1 receptor, forskolin + agonist CPA
T3 construct: expressed in transfected cells; host or cells: CHO
T3 sequence (P30542 1-326): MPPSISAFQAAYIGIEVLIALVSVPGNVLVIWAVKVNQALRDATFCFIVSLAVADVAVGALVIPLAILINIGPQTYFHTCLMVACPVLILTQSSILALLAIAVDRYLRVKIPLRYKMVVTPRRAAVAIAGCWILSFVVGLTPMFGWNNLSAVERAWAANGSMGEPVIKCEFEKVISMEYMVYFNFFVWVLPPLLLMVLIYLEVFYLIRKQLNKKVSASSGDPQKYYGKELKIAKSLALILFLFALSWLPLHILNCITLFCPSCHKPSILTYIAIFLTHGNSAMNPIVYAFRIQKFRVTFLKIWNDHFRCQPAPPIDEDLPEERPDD
Protocol: as §1
(§3) For human A1 and A3 receptors, recombinant CHO cells, expressing either A1 or A3-receptor, were used. As both receptors couple to Gi proteins, the assay protocol was adapted:
as §2

human A3 receptor = target: T4, human A3 receptor (Homo sapiens, UniProt P0DMS8); experiment: cAMP (HTRF) functional assay, recombinant CHO cells expressing human A3 receptor, forskolin + agonist IB-MECA
T4 construct: expressed in transfected cells; host or cells: CHO
T4 sequence (P0DMS8 1-318): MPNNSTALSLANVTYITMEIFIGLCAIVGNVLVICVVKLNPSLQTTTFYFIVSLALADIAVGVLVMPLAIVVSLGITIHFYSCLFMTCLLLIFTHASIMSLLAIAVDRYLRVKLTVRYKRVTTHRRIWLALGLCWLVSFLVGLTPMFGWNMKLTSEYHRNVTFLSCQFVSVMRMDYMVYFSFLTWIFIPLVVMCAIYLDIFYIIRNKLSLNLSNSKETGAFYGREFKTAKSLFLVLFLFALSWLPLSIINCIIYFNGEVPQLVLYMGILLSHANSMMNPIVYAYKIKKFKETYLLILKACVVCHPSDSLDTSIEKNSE
Protocol: as §1, §3, §2

T1 sequence (P29274 whole entry): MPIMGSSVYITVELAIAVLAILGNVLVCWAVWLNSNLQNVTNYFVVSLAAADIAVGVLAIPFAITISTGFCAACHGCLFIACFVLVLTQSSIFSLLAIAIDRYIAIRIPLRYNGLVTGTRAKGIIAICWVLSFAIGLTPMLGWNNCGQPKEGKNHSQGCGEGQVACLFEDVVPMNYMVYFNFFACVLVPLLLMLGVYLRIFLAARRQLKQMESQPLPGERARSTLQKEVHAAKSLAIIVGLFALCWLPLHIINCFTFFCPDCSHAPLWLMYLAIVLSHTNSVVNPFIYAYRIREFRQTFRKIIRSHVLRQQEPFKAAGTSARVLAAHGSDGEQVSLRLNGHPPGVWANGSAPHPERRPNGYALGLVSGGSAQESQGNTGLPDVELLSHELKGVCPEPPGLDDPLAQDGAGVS

Row | Structure (SMILES) | IC50 (human A2A receptor) | IC50 (human A2B receptor) | IC50 (human A1 receptor) | IC50 (human A3 receptor)
1 | COc1ncc(N2CCOCC2)c2sc(NC(=O)C3CC3)nc12 [compound 167, Cyclopropanecarboxylic acid (4-methoxy-7-morpholin-4-yl-thiazolo[4,5-c]pyridin-2-yl)-amide] | < 10 nM | < 100 nM | > 1000 nM | > 1000 nM
2 | COc1ncc(C2CCOCC2)c2sc(NC(=O)c3ccc(C(=O)N(C)C)cc3)nc12 [compound 113, N-[4-Methoxy-7-(tetrahydro-pyran-4-yl)-thiazolo[4,5-c]pyridin-2-yl]-N′,N′-dimethyl-terephthalamide] | < 10 nM | < 100 nM | > 1000 nM | > 1000 nM
3 | COc1ncc(-c2ccccc2)c2sc(NC(=O)N3CC[C@@]4(CCOC4)C3)nc12 [compound 208, (R)-2-Oxa-7-aza-spiro[4.4]nonane-7-carboxylic acid (4-methoxy-7-phenyl-thiazolo[4,5-c]pyridin-2-yl)-amide] | < 10 nM | < 100 nM | > 1000 nM | > 1000 nM
4 | COc1ncc(-c2ccccc2)c2sc(NC(=O)N3CCC4(CCOCC4)C3)nc12 [compound 53, 8-Oxa-2-aza-spiro[4.5]decane-2-carboxylic acid (4-methoxy-7-phenyl-thiazolo[4,5-c]pyridin-2-yl)-amide] | < 10 nM | < 100 nM | > 1000 nM | > 1000 nM
5 | COc1ncc(-c2cnn(C)c2)c2sc(NC(=O)C3CC3)nc12 [compound 179, Cyclopropanecarboxylic acid [4-methoxy-7-(1-methyl-1H-pyrazol-4-yl)-thiazolo[4,5-c]pyridin-2-yl]-amide] | < 10 nM | < 100 nM | > 1000 nM | < 1000 nM
6 | COc1ncc(N2CCOCC2)c2sc(NC(=O)N3CCC(O)(Cc4ccccc4)CC3)nc12 [compound 7, 4-benzyl-4-hydroxy-N-[4-methoxy-7-(morpholin-4-yl)-[1,3]thiazolo[4,5-c]pyridin-2-yl]piperidine-1-carboxamide] | < 100 nM | < 100 nM | < 1000 nM | > 1000 nM
7 | COCCOc1cccc(-c2cnc(OC)c3nc(NC(=O)c4cnn(CCOC)c4)sc23)c1 [compound 233, N-{4-methoxy-7-[3-(2-methoxyethoxy)phenylH]-[1,3]thiazolo[4,5-c]pyridin-2-yl}-1-(2-methoxyethyl)-1H-pyrazole-4-carboxamide] | < 10 nM | < 10 nM | < 1000 nM | < 1000 nM
8 | COc1ncc(-c2cnn(C)c2)c2sc(NC(=O)N3CCC(C)(O)CC3)nc12 [compound 21, 4-Hydroxy-4-methyl-piperidine-1-carboxylic acid [4-methoxy-7-(1-methyl-1H-pyrazol-4-yl)-thiazolo[4,5-c]pyridin-2-yl]-amide] | < 10 nM | < 100 nM | < 1000 nM | < 1000 nM
9 | COc1ncc(N2CC3(CCCO3)C2)c2sc(NC(=O)c3cnn(C)c3)nc12 [compound 156, 1-Methyl-1H-pyrazole-4-carboxylic acid [4-methoxy-7-(5-oxa-2-aza-spiro[3.4]oct-2-yl)-thiazolo[4,5-c]pyridin-2-yl]-amide] | < 100 nM | < 100 nM | > 1000 nM | < 1000 nM
10 | COc1ncc(-c2ccccc2)c2sc(NC(=O)N3CC[C@@]4(CCCOC4)C3)nc12 [compound 204, (S)-7-Oxa-2-aza-spiro[4.5]decane-2-carboxylic acid (4-methoxy-7-phenyl-thiazolo[4,5-c]pyridin-2-yl)-amide] | < 10 nM | < 100 nM | < 1000 nM | > 1000 nM
11 | COc1ncc(-c2ccccc2)c2sc(NC(=O)N3CC[C@]4(CCCOC4)C3)nc12 [compound 205, (R)-7-Oxa-2-aza-spiro[4.5]decane-2-carboxylic acid (4-methoxy-7-phenyl-thiazolo[4,5-c]pyridin-2-yl)-amide] | < 10 nM | < 100 nM | > 1000 nM | > 1000 nM
12 | COc1ccc(-c2cnc(OC)c3nc(NC(=O)N4CCC5(CCOCC5)C4)sc23)c(OC)n1 [compound 239, N-[7-(2,6-dimethoxypyridin-3-yl)-4-methoxy-[1,3]thiazolo[4,5-c]pyridin-2-yl]-8-oxa-2-azaspiro[4.5]decane-2-carboxamide] | < 100 nM | > 1000 nM | > 1000 nM | > 1000 nM
13 | COc1ncc(C2CCOCC2)c2sc(NC(=O)N3CCC(C)(O)CC3)nc12 [compound 30, 4-Hydroxy-4-methyl-piperidine-1-carboxylic acid [4-methoxy-7-(tetrahydro-pyran-4-yl)-thiazolo[4,5-c]pyridin-2-yl]-amide] | < 10 nM | < 100 nM | < 1000 nM | > 1000 nM
14 | COc1ncc(-c2cnn(C)c2)c2sc(NC(=O)N3CCC4(CCOC4)C3)nc12 (stereo not shown) [compound 82, 2-Oxa-7-aza-spiro[4.4]nonane-7-carboxylic acid [4-methoxy-7-(1-methyl-1H-pyrazol-4-yl)-thiazolo[4,5-c]pyridin-2-yl]-amide] | < 10 nM | < 100 nM | > 1000 nM | > 1000 nM
15 | COc1ncc(N2CCOCC2)c2sc(NC(=O)c3ccc(C(=O)N(C)C)cc3)nc12 [compound 15, N-(4-Methoxy-7-morpholin-4-yl-thiazolo[4,5-c]pyridin-2-yl)-N′,N′-dimethyl-terephthalamide] | < 10 nM | < 100 nM | > 1000 nM | > 1000 nM
16 | COc1ncc(-c2ccccc2F)c2sc(NC(=O)N3CCC4(CCOCC4)C3)nc12 [compound 195, 8-Oxa-2-aza-spiro[4.5]decane-2-carboxylic acid [7-(2-fluoro-phenyl)-4-methoxy-thiazolo[4,5-c]pyridin-2-yl]-amide] | < 10 nM | < 100 nM | > 1000 nM | > 1000 nM
17 | COc1ncc(-c2ccccc2)c2sc(NC(=O)N3CCC4(CCCOC4)C3)nc12 (stereo not shown) [compound 52, 7-Oxa-2-aza-spiro[4.5]decane-2-carboxylic acid (4-methoxy-7-phenyl-thiazolo[4,5-c]pyridin-2-yl)-amide] | < 10 nM | < 100 nM | < 1000 nM | > 1000 nM
18 | COc1ncc(-c2ccccc2)c2sc(NC(=O)c3ccc(C(=O)N(C)C)cc3)nc12 [compound 58, N-(4-Methoxy-7-phenyl-thiazolo[4,5-c]pyridin-2-yl)-N′,N′-dimethyl-terephthalamide] | < 10 nM | < 10 nM | < 1000 nM | > 1000 nM
19 | COc1ncc(-c2ccccc2)c2sc(NC(=O)C3CC3)nc12 [compound 187, Cyclopropanecarboxylic acid (4-methoxy-7-phenyl-thiazolo[4,5-c]pyridin-2-yl)-amide] | < 10 nM | < 100 nM | < 1000 nM | < 1000 nM
20 | COc1ncc(-c2ccccc2)c2sc(NC(=O)c3cnc(C)s3)nc12 [compound 190, 2-Methyl-thiazole-5-carboxylic acid (4-methoxy-7-phenyl-thiazolo[4,5-c]pyridin-2-yl)-amide] | < 10 nM | < 100 nM | < 1000 nM | < 1000 nM
21 | COCc1ccc(C(=O)Nc2nc3c(OC)ncc(C4CCOCC4)c3s2)cc1 [compound 23, 4-Methoxymethyl-N-[4-methoxy-7-(tetrahydro-pyran-4-yl)-thiazolo[4,5-c]pyridin-2-yl]-benzamide] | < 10 nM | < 100 nM | < 1000 nM | > 1000 nM
22 | COc1ncc(-c2cccc(F)c2)c2sc(NC(=O)N3CCC4(CCOCC4)C3)nc12 [compound 194, 8-Oxa-2-aza-spiro[4.5]decane-2-carboxylic acid [7-(3-fluoro-phenyl)-4-methoxy-thiazolo[4,5-c]pyridin-2-yl]-amide] | < 10 nM | < 100 nM | < 1000 nM | > 1000 nM

— patent US11186592B2, “Thiazolopyridine derivatives as adenosine receptor antagonists” (MERCK PATENT GMBH, priority 2017, dated 2021)
